# Counter-ions that a name gives are not always drawn.
# Target: αvβ1 integrin (αvβ1 expressing CHO cells) (Homo sapiens (Human), UniProt P05556+P06756)
# Experiment: Cell adhesion assay: inhibition of αvβ1 expressing CHO cells attaching to TGFβ1LAP
# Assay type: cell-based
# Conditions: 1 h at 37° C., crystal violet absorbance 595 nm, read-out: αvβ1 Inhibition IC50 (nM)-range
# Protocol: Example B1—Cell Adhesion Assay
# In order to determine the potency, the compounds were assessed for their ability to inhibit αvβ1 expressing CHO cells attach to TGFβ1LAP. Microplates were coated overnight with 2 ug/ml TGFβ1LAP at 4° C., and blocked with 2% BSA/PBS for 30 min before the assay. Cells were detached and washed in PBS. After that the cells were resuspended in DMEM at 1.0×10^6 cells/ml, fifty microliter of cell suspension and fifty microliter of compound solution were added into the plate. The plates were incubated for one hour at 37° C. in humidified 5% carbon dioxide. Non-adherent cells were removed by centrifugation top side down at 58 g for 5 min. The attached cells were fixed and stained with 0.5% crystal violet (in 20% methanol and 1% formaldehyde) and the wells washed with PBS. Crystal violet was dissolved in 2% Triton-X in PBS. The relative number of cells in each well was evaluated by the absorbance at 595 nm in a microplate reader (Tecan). IC50 values were determined by non-linear regression with four parameters (Graphpad Prism 7.01, Y=Bottom+(Top−Bottom)/(1+10^((Log IC50−X)*HillSlope)).
# The compounds tested were compound samples prepared according to procedures described in the Synthetic Examples section, with the stereochemical purity as indicated in the Examples indicated for Example or Compound No. 1-62. The compounds tested were predominantly S-configuration at the alpha carbon of the amino acid scaffold, except for compounds 123, 124, and 125 which were predominantly R-configuration at the alpha carbon of the amino acid scaffold. “Example or Compound No.” in Table B-1 refers to the compound illustrated in the examples for Example or Compound Nos. 1-62 (the compounds of Examples 1-62 are labeled as Compounds 1-62 in Table 1). “Example or Compound No.” in Table B-1 refers to the compound number as indicated in Table 1 or Table 2 for Example or Compound Nos. 63-126.
# Chain of αvβ1 integrin (αvβ1 expressing CHO cells) (P06756 31-889): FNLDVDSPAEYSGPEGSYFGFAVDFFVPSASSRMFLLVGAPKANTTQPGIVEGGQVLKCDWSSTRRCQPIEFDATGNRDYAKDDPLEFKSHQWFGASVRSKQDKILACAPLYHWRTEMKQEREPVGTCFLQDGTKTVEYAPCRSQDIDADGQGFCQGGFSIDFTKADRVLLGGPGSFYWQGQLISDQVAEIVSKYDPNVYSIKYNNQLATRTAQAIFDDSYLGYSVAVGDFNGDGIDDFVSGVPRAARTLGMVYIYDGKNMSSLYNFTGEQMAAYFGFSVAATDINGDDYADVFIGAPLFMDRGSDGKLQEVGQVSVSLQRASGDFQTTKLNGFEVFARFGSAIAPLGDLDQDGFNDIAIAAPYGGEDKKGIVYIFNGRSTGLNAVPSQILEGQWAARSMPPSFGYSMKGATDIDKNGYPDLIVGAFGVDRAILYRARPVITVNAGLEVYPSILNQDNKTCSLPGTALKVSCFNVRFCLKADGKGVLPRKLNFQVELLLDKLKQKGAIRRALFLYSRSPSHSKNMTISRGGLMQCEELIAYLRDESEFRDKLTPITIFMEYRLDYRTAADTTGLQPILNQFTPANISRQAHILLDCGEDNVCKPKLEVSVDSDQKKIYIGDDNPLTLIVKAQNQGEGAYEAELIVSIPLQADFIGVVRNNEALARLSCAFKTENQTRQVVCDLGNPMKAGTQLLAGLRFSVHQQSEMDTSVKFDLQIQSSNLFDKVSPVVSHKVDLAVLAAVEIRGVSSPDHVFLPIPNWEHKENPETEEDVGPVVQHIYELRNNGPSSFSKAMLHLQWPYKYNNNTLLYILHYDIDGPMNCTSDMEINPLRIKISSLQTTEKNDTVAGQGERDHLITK
# Chain of αvβ1 integrin (αvβ1 expressing CHO cells) (P06756 891-1048 partner): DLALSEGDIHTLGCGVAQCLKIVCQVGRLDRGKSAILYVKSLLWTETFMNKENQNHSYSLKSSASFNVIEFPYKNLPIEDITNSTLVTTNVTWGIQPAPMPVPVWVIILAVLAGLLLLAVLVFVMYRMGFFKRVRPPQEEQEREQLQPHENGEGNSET
# Chain of αvβ1 integrin (αvβ1 expressing CHO cells) (P05556 21-798): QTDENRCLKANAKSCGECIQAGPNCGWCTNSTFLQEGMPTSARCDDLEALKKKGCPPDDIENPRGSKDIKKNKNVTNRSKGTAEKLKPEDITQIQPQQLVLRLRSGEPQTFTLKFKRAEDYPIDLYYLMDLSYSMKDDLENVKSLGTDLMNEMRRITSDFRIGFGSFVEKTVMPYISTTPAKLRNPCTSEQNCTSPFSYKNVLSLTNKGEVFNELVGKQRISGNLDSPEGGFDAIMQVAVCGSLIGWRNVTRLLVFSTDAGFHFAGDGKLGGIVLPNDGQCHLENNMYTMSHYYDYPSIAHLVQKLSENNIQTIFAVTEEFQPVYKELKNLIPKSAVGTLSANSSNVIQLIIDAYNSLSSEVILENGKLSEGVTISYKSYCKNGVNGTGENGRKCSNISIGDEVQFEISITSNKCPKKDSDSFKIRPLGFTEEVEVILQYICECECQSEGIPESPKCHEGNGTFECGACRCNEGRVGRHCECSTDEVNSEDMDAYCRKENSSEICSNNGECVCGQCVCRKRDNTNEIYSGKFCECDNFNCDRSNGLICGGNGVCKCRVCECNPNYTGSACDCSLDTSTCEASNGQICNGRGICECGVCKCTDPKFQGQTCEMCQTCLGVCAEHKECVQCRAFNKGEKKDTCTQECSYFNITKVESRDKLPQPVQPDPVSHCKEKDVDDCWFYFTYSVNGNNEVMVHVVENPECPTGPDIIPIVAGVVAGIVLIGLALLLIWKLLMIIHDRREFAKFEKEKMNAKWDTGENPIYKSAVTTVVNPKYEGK
row,SMILES,IC50 [nM]
1,"N#Cc1cc(Cl)c(C(=O)N[C@@H](Cc2ccc(OCCCc3ccc4c(n3)NCCC4)cc2)C(=O)O)c(Cl)c1 [Example 5, (S)-2-(2,6-dichloro-4-cyanobenzamido)-3-(4-(3-(5,6,7,8-tetrahydro-1,8-naphthyridin-2-yl)propoxy)phenyl)propanoic acid]",< 50
2,"Cn1ncc2ccc(C(=O)N[C@@H](Cc3ccc(OCCCc4ccc5c(n4)NCCC5)cc3)C(=O)O)cc21 [Example 41, (2S)-2-[(1-methylindazole-6-carbonyl)amino]-3-[4-[3-(5,6,7,8-tetrahydro-1,8-naphthyridin-2-yl)propoxy]phenyl]propanoic acid]",< 50
3,"CN1CCN=C(NCCCCOc2ccc(C[C@H](NC(=O)c3c(Cl)cccc3Cl)C(=O)O)cc2)C1=O [Example 17, (S)-2-(2,6-dichlorobenzamido)-3-(4-(4-((4-methyl-3-oxo-3,4,5,6-tetrahydropyrazin-2-yl)amino)butoxy)phenyl)propanoic acid]",> 1000
4,"O=C(NC(Cc1ccc(OCC2CC(Nc3ccccn3)C2)cc1)C(=O)O)c1c(Cl)cccc1Cl [Example 23, (S)-2-(2,6-dichlorobenzamido)-3-(4-(((1s,3R)-3-(pyridin-2-ylamino)cyclobutyl)methoxy)phenyl)propanoic acid]",< 50
5,O=C(NC(Cc1ccc(OCCCc2ccc3c(n2)NCCC3)cc1)C(=O)O)c1c(Cl)cc(-c2cnc[nH]2)cc1Cl (centres unmarked) [Compound 99],< 50
6,"Cn1cc2cc(C(=O)NC(CCCCCCCc3ccc4c(n3)NCCC4)C(=O)O)ccc2n1 (centres unmarked) [Compound 86, 2-(2-methyl-2H-indazole-5-carboxamido)-9-(5,6,7,8-tetrahydro-1,8-naphthyridin-2-yl)nonanoic acid]",50 to 250
7,"O=C(NC(Cc1ccc(OCCCC2Cc3cccnc3N2)cc1)C(=O)O)c1c(Cl)cccc1Cl (centres unmarked) [Example 18, 2-(2,6-dichlorobenzamido)-3-(4-(3-(2,3-dihydro-1H-pyrrolo[2,3-b]pyridin-2-yl)propoxy)phenyl)propanoic acid]",< 50
8,Cn1ncc2cc(C(=O)N[C@@H](CCCCCCCc3ccc4c(n3)NCCC4)C(=O)O)ccc21 [Compound 104],50 to 250
9,Cn1cc2cc(C(=O)N[C@@H](CCCCCCCc3ccc4c(n3)NCCC4)C(=O)O)ccc2n1 [Compound 109],50 to 250
10,"O=C(N[C@@H](Cc1ccc(OCCCc2ccc3c(n2)NCCC3)cc1)C(=O)O)c1cccnc1 [Example 14, (S)-2-(nicotinamido)-3-(4-(3-(5,6,7,8-tetrahydro-1,8-naphthyridin-2-yl)propoxy)phenyl)propanoic acid]",< 50
11,"O=C(NC(CN1CC(OCCCc2ccc3c(n2)NCCC3)C1)C(=O)O)c1c(Cl)cccc1Cl (centres unmarked) [Compound 74, 2-(2,6-dichlorobenzamido)-3-(3-(3-(5,6,7,8-tetrahydro-1,8-naphthyridin-2-yl)propoxy)azetidin-1-yl)propanoic acid]",250 to 1000
12,"Cn1cnc2cc(C(=O)N[C@@H](Cc3ccc(OCCCc4ccc5c(n4)NCCC5)cc3)C(=O)O)ccc21 [Example 9, (S)-2-(1-methyl-1H-benzo[d]imidazole-5-carboxamido)-3-(4-(3-(5,6,7,8-tetrahydro-1,8-naphthyridin-2-yl)propoxy)phenyl)propanoic acid]",50 to 250
13,O=C(N[C@@H](CCCCCCCc1ccc2c(n1)NCCC2)C(=O)O)c1ccc2[nH]ncc2c1 [Compound 103],50 to 250
14,O=C(NC(CCCCCCCc1ccc2c(n1)NCCC2)C(=O)O)c1ccc2cn[nH]c2c1 (centres unmarked) [Compound 98],50 to 250
15,Cn1ncc2cccc(C(=O)N[C@@H](CCCCCCCc3ccc4c(n3)NCCC4)C(=O)O)c21 [Compound 114],< 50
16,O=C(N[C@@H](CCCCCCCc1ccc2c(n1)NCCC2)C(=O)O)c1ccc(-c2cccnc2)cc1 [Compound 111],250 to 1000
17,Cn1ncc2c(C(=O)N[C@@H](CCCCCCCc3ccc4c(n3)NCCC4)C(=O)O)cccc21 [Compound 115],250 to 1000
18,"O=C(N[C@@H](CCCCCCCCNC1=NCCNC1)C(=O)O)c1c(Cl)cccc1Cl [Example 47, (S)-2-(2,6-dichlorobenzamido)-10-((3,4,5,6-tetrahydropyrazin-2-yl)amino)decanoic acid]",> 1000

row,SMILES,IC50 [nM]
1,"Cc1nccc(C(=O)N[C@@H](Cc2ccc(OCCCc3ccc4c(n3)NCCC4)cc2)C(=O)O)n1 [Example 8, (S)-2-(2-methylpyrimidine-4-carboxamido)-3-(4-(3-(5,6,7,8-tetrahydro-1,8-naphthyridin-2-yl)propoxy)phenyl)propanoic acid]",50 to 250
2,"Cn1ncc2cc(C(=O)N[C@@H](Cc3ccc(OCCCc4ccc5c(n4)NCCC5)cc3)C(=O)O)ccc21 [Example 43, (2S)-2-[(1-methylindazole-5-carbonyl)amino]-3-[4-[3-(5,6,7,8-tetrahydro-1,8-naphthyridin-2-yl)propoxy]phenyl]propanoic acid]",< 50
3,O=C(N[C@@H](CCCCCCCc1ccc2c(n1)NCCC2)C(=O)O)c1ccc2cn(C(F)F)nc2c1 [Compound 108],50 to 250
4,"O=C(N[C@@H](Cc1ccc(OCCCCNC2=NCCCO2)cc1)C(=O)O)c1c(Cl)cccc1Cl [Example 59, (S)-2-(2,6-dichlorobenzamido)-3-(4-(4-((5,6-dihydro-4H-1,3-oxazin-2-yl)amino)butoxy)phenyl)propanoic acid]",> 1000
5,O=C(N[C@@H](CCCCCCCc1ccc2c(n1)NCCC2)C(=O)O)c1ccc2cnn(C(F)F)c2c1 [Compound 105],250 to 1000
6,"O=C(N[C@@H](Cc1ccc(OCCCc2ccc3c(n2)NCCC3)cc1)C(=O)O)c1ccc(C2CC2)cc1 [Example 34, (2S)-2-[(4-cyclopropylbenzoyl)amino]-3-[4-[3-(5,6,7,8-tetrahydro-1,8-naphthyridin-2-yl)propoxy]phenyl]propanoic acid]",< 50
7,"O=C(N[C@@H](Cc1ccc(OCCCCNC2=NCCO2)cc1)C(=O)O)c1c(Cl)cccc1Cl [Example 61, (S)-2-(2,6-dichlorobenzamido)-3-(4-(4-((4,5-dihydrooxazol-2-yl)amino)butoxy)phenyl)propanoic acid]",50 to 250
8,"O=C(N[C@@H](Cc1ccc(OCCCc2ccc3c(n2)NCCC3)cc1)C(=O)O)c1cnc(C(F)F)cn1 [Example 3, (S)-2-(5-(difluoromethyl)pyrazine-2-carboxamido)-3-(4-(3-(5,6,7,8-tetrahydro-1,8-naphthyridin-2-yl)propoxy)phenyl)propanoic acid]",< 50
9,O=C(N[C@@H](CCCCCCCc1ccc2c(n1)NCCC2)C(=O)O)c1cccc2[nH]ncc12 [Compound 116],< 50
10,"O=C(N[C@@H](Cc1ccc(OCC2(CNc3ccccn3)CC2)cc1)C(=O)O)c1c(Cl)cccc1Cl [Example 46, (2S)-2-((2,6-dichlorobenzoyl)amino)-3-(4-((1-((2-pyridylamino)methyl)cyclopropyl)methoxy)phenyl)propanoic acid]",50 to 250
11,"O=C(NC(Cc1ccc(O[C@H]2CC[C@@H](Nc3ccccn3)CC2)cc1)C(=O)O)c1c(Cl)cccc1Cl (stereo partly drawn) [Example 38, (2S)-2-[(2,6-dichlorobenzoyl)amino]-3-[4-[4-cis-(2-pyridylamino)cyclohexoxy]phenyl]propanoic acid]",< 50
12,"CC(=O)N1CCN=C(NCCCCOc2ccc(C[C@H](NC(=O)c3c(Cl)cccc3Cl)C(=O)O)cc2)C1 [Example 55, (S)-3-(4-(4-((4-acetyl-3,4,5,6-tetrahydropyrazin-2-yl)amino)butoxy)phenyl)-2-(2,6-dichlorobenzamido)propanoic acid]",50 to 250
13,"Cn1ncc2cc(C(=O)NC(CCCCCCCc3ccc4c(n3)NCCC4)C(=O)O)ccc21 (centres unmarked) [Compound 82, 2-(1-methyl-1H-indazole-5-carboxamido)-9-(5,6,7,8-tetrahydro-1,8-naphthyridin-2-yl)nonanoic acid]",50 to 250
14,"O=C(N[C@@H](Cc1ccc(OCCCc2ccc3c(n2)NCCC3)cc1)C(=O)O)c1c(Cl)cccc1Cl [Example 16, (S)-2-(2,6-dichlorobenzamido)-3-(4-(3-(5,6,7,8-tetrahydro-1,8-naphthyridin-2-yl)propoxy)phenyl)propanoic acid]",< 50
15,O=C(N[C@@H](CCCCCCCc1ccc2c(n1)NCCC2)C(=O)O)c1ccc(-c2ccncc2)cc1 [Compound 112],50 to 250
16,"O=C(N[C@@H](Cc1ccc(COCCc2ccc3c(n2)NCCC3)cc1)C(=O)O)c1c(Cl)cccc1Cl [Example 29, (S)-2-(2,6-dichlorobenzamido)-3-(4-((2-(5,6,7,8-tetrahydro-1,8-naphthyridin-2-yl)ethoxy)methyl)phenyl)propanoic acid trifluoroacetate]",< 50
17,"O=C(N[C@@H](Cc1ccc(OCCCc2ccc3c(n2)NCCC3)cc1)C(=O)O)c1ccccc1 [Example 1, (S)-2-benzamido-3-(4-(3-(5,6,7,8-tetrahydro-1,8-naphthyridin-2-yl)propoxy)phenyl)propanoic acid]",< 50

# Source: patent US20230365556A1, “N-ACYL AMINO ACID COMPOUNDS AND METHODS OF USE” (Pliant Therapeutics, Inc., priority 2016, published 2023)
